A short description of the data set: Solubility of SR2516 and SR3406 in selected oils. The format is physicochemical. As to conditions: shaken overnight at 25 deg C, filtrate, HPLC. How it is done: This purpose of this study was to select an oil system as the vehicle base for the self-emosifying formulation based on the solubility
Procedure • 1. Add 25 mg of each API in 2 mL eppendoff vial. Record weight. • 2. Weigh out each excipient. Record weight. • 3. Beadbeater 100 sec to mix well. If all dissolved, add additional 5-10 mg each time until excess solid is present. • 4. Use a platform shaker to shake all vials overnight at 25 deg C. • 5. Observe for clarity, presence and relative amount of precipitates. • 6. Filter using spin-X (0.22 um). • 7. Dilute the filtrate to normal concentration for HPLC analysis for drug concentration and purity %. • 8. Keep the filtrate at room temperature and observe for ppt at longer time point(s) if needed. Results Analysis on Filtrate Samples

This is an account of results in patent US9375402B2, “Oral formulations of kinase inhibitors” (VERASTEM, INC., priority 2010, dated 2016).

Turning to `CNC(=O)c1cc(F)ccc1Nc1cc(Nc2ccc(N3CCOCC3)cc2OC)ncc1C(F)(F)F` [SR-3406], the “Solubility” value runs as follows: (in Capmul MCM (F2)) 13.6 mg/g; (in Castor oil (F4)) 4.9 mg/g; (in Labrafil M 1944 CS (F3)) 1.0 mg/g; (in Miglyol 812 (F1)) 0.3 mg/g; (in Oleic acid (F5)) 0.4 mg/g.
For the molecule `CNC(=O)c1ccccc1Nc1cc(Nc2ccc(N3CCOCC3)cc2OC)ncc1C(F)(F)F` [SR-2516], the “Solubility” value reads like this: (in Capmul MCM (F2)) 8.4 mg/g; (in Castor oil (F4)) 1.5 mg/g; (in Labrafil M 1944 CS (F3)) 2.2 mg/g; (in Miglyol 812 (F1)) 0.3 mg/g; (in Oleic acid (F5)) 5.8 mg/g.
